Results taken from patent US11046716B2, “Beta-lactamase inhibitors” (priority 2015, dated 2021).

Columns and labels:
SHV-5 = biological target: T1, SHV-5 (Klebsiella pneumoniae, UniProt P0A3M1); assay: β-lactamase enzyme inhibition assay, SHV-5 (cefotaxime substrate); assay type: biochemical
T1 construct: made in house; host or cells: E. coli BL21(DE3)
In short: (§1)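 Compounds are mixed with purified, untagged recombinant β-lactamase and held 15 min at 37 °C. Substrate is then added: nitrocefin (100 μM final) for OXA-1, imipenem for KPC-2, cefotaxime for SHV-5. Absorbance is followed immediately, and percent inhibition per concentration gives the IC50.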

KPC-2 = biological target: T2, KPC-2 (Klebsiella pneumoniae, UniProt Q9F663); assay: β-lactamase enzyme inhibition assay, KPC-2 (imipenem substrate); assay type: biochemical; conditions: Class A; imipenem substrate, 300 nm; read-out: KPC-2
T2 construct: made in house; host or cells: E. coli BL21(DE3)
T2 sequence (Q9F663 25-293, looked up): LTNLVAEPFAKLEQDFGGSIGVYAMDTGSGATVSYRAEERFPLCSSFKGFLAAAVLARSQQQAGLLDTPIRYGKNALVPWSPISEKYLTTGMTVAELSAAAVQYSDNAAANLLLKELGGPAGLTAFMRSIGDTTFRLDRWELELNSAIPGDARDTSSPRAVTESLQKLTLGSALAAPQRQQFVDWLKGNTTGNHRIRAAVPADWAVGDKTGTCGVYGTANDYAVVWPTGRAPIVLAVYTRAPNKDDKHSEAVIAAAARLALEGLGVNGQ
In short: as §1

VIM-2 = biological target: T3, VIM-2 (Escherichia coli, UniProt Q5U7L7); assay: β-lactamase enzyme inhibition assay, VIM-2 (nitrocefin substrate); assay type: biochemical; conditions: Class B; nitrocefin substrate, 486 nm; read-out: VIM-2
T3 construct: made in house; host or cells: E. coli BL21(DE3)
In short: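 Metallo-β-lactamase VIM-2 activity was tracked spectrophotometrically at 486 nm with 100 μM nitrocefin over 10 min, following 15 min preincubation with compound at 37 °C; inhibition was calculated per concentration.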

AmpC = biological target: T4, AmpC (Enterobacter cloacae, UniProt P05364); assay: β-lactamase enzyme inhibition assay, p99 AmpC (nitrocefin substrate); assay type: biochemical
T4 construct: made in house; host or cells: E. coli BL21(DE3)
T4 sequence (P05364 21-381): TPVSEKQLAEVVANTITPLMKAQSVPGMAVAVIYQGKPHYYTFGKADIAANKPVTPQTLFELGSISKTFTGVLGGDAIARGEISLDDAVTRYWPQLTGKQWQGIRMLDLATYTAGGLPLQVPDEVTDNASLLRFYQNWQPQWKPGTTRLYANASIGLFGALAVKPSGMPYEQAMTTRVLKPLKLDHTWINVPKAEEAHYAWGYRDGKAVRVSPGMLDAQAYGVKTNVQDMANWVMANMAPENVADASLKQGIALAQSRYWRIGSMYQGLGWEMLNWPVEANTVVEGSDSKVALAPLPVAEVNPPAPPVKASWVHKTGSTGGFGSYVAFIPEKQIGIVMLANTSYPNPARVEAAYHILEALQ
In short: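 Compounds are mixed with purified, untagged recombinant β-lactamase and held 15 min at 37 °C. Substrate is then added. Absorbance is followed immediately, and percent inhibition per concentration gives the IC50.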

OXA-48 = OXA-48 (UniProt Q6XEC0); assay: β-lactamase enzyme inhibition assay, Class D oxacillinase; assay type: biochemical; conditions: read-out: OXA-48
[1] = test system: E. coli expressing the Class A Extended Spectrum Beta-Lactamase (ESBL) CTX-M-15; assay: Broth microdilution MIC assay with ceftazidime, E. coli CTX-M-15; assay type: cell-based; conditions: Fixed CAZ (ceftazidime) 4 μg/mL; E. coli ESBL4 CTX-M-15
In short: (§2)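 In cation-adjusted Mueller Hinton broth, bacteria pre-grown 3-5 hours were exposed to test compound (2-fold, 16–0.125 μg/mL) plus a static 4 μg/ml β-lactam. A panel of control β-lactams was run alongside, and the compound MIC was judged by eye following 16-20 hours at 37° C.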

[2] = test system: E. cloacae expressing the Class C P99; assay: Broth microdilution MIC assay with ceftazidime, E. cloacae P99; assay type: cell-based; conditions: Fixed CAZ (ceftazidime) 4 μg/mL; E. cl. 144200 p99 AmpC
In short: as §2

[3] = test system: K. pneumoniae expressing the Class A carbapenemase KPC-2; assay: Broth microdilution MIC assay with meropenem, K. pneumoniae KPC-2; assay type: cell-based; conditions: Fixed Mero (meropenem) 4 μg/mL; K. p. 156319 KPC-3
In short: as §2

[4] = test system: P. aeruginosa expressing the Class B carbapenemase VIM-2; assay: Broth microdilution MIC assay with meropenem, P. aeruginosa VIM-2; assay type: cell-based; conditions: Fixed Mero (meropenem) 4 μg/mL; P. aerug. 2775 VIM-2
In short: as §2

[5] = test system: K. pneumoniae expressing the class A carbapenemase KPC-2 and the class B carbapenemase VIM-4; assay: Broth microdilution MIC assay with meropenem, K. pneumoniae KPC-2 and VIM-4; assay type: cell-based; conditions: Fixed Mero (meropenem) 4 μg/mL; K. p. A-1797 KPC-2 VIM-4
In short: as §2

[6] = test system: K. pneumoniae producing the Class D carbapenemase OXA-48; assay: Broth microdilution MIC assay with meropenem, K. pneumoniae OXA-48; assay type: cell-based; conditions: Fixed Mero (meropenem) 4 μg/mL; K. p. 11978 OXA-48
In short: as §2

T1 sequence (P0A3M1 22-286): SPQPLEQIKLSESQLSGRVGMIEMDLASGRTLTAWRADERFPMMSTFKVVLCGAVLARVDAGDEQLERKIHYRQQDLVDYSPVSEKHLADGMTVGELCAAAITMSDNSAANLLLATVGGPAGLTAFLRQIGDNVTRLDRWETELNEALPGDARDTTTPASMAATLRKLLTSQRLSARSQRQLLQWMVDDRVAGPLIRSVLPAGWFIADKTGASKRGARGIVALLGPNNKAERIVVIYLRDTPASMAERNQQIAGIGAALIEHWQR

| Compound | IC50 (SHV-5) | IC50 (KPC-2) | IC50 (VIM-2) | IC50 (AmpC) | IC50 (OXA-48) | MIC (μg/mL) of Exemplary Compounds in presence of fixed β-lactams: E. coli ESBL4 CTX-M-15 [1] | MIC (μg/mL) of Exemplary Compounds in presence of fixed β-lactams: E. cl. 144200 p99 AmpC [2] | MIC (μg/mL) of Exemplary Compounds in presence of fixed β-lactams: K. p. 156319 KPC-3 [3] | MIC (μg/mL) of Exemplary Compounds in presence of fixed β-lactams: P. aerug. 2775 VIM-2 [4] | MIC (μg/mL) of Exemplary Compounds in presence of fixed β-lactams: K. p. A-1797 KPC-2 VIM-4 [5] | MIC (μg/mL) of Exemplary Compounds in presence of fixed β-lactams: K. p. 11978 OXA-48 [6] |
| --- | --- | --- | --- | --- | --- | --- | --- | --- | --- | --- | --- |
| CN(C)Cc1nnn(CC(=O)N[C@H]2Cc3cccc(C(=O)O)c3OB2O)c1CN(C)C [Example 38, (R)-3-(2-(4,5-bis((dimethylamino)methyl)-1H-1,2,3-triazol-1-yl)acetamido)-2-hydroxy-3,4-dihydro-2H-benzo[e][1,2]oxaborinine-8-carboxylic acid] | 100 to 1000 nM | < 100 nM | 100 to 1000 nM | < 100 nM | 100 to 1000 nM | B (B represents an MIC between 1 and 16 μg/mL inclusive) | C (C represents an MIC of <1 μg/mL) | B (B represents an MIC between 1 and 16 μg/mL inclusive) | B (B represents an MIC between 1 and 16 μg/mL inclusive) | B (B represents an MIC between 1 and 16 μg/mL inclusive) | B (B represents an MIC between 1 and 16 μg/mL inclusive) |
| CC(C)(C(=O)N[C@H]1Cc2cccc(C(=O)O)c2OB1O)n1cc(CNC(=N)N)nn1 [Example 39, (R)-3-(2-(4-(guanidinomethyl)-1H-1,2,3-triazol-1-yl)-2-methylpropanamido)-2-hydroxy-3,4-dihydro-2H-benzo[e][1,2]oxaborinine-8-carboxylic acid] | < 100 nM | < 100 nM | < 100 nM | < 100 nM | 100 to 1000 nM | C (C represents an MIC of <1 μg/mL) | C (C represents an MIC of <1 μg/mL) | B (B represents an MIC between 1 and 16 μg/mL inclusive) | C (C represents an MIC of <1 μg/mL) | B (B represents an MIC between 1 and 16 μg/mL inclusive) | B (B represents an MIC between 1 and 16 μg/mL inclusive) |
| O=C(Cc1nnn[nH]1)N[C@H]1Cc2cccc(C(=O)O)c2OB1O [Example 40, (R)-3-(2-(1H-tetrazol-5-yl)acetamido)-2-hydroxy-3,4-dihydro-2H-benzo[e][1,2]oxaborinine-8-carboxylic acid] | < 100 nM | < 100 nM | 1000 to 10000 nM | < 100 nM | 100 to 1000 nM | C (C represents an MIC of <1 μg/mL) | C (C represents an MIC of <1 μg/mL) | C (C represents an MIC of <1 μg/mL) | B (B represents an MIC between 1 and 16 μg/mL inclusive) | B (B represents an MIC between 1 and 16 μg/mL inclusive) | B (B represents an MIC between 1 and 16 μg/mL inclusive) |
| NCCn1nnnc1CC(=O)N[C@H]1Cc2cccc(C(=O)O)c2OB1O [Example 41, (R)-3-(2-(1-(2-aminoethyl)-1H-tetrazol-5-yl)acetamido)-2-hydroxy-3,4-dihydro-2H-benzo[e][1,2]oxaborinine-8-carboxylic acid] | < 100 nM | < 100 nM | < 100 nM | < 100 nM | 100 to 1000 nM | C (C represents an MIC of <1 μg/mL) | C (C represents an MIC of <1 μg/mL) | C (C represents an MIC of <1 μg/mL) | C (C represents an MIC of <1 μg/mL) | C (C represents an MIC of <1 μg/mL) | B (B represents an MIC between 1 and 16 μg/mL inclusive) |
